Values of other authors in patent publication US8211469B2, “Use of block copolymers based on vinyllactams and vinyl acetate as solubilizers” (priority 2006, dated 2012).

Conditions: 20° C.

For `Fc1ccc([C@]2(Cn3cncn3)O[C@H]2c2ccccc2Cl)cc1` (racemic) [Epoxyconazole], the Solubility in water is given as 6.63*10^−4 g/100 ml.
